The subject of data set [1] is human coronary artery smooth muscle cells. The data set can be described thus: Anti-proliferative activity in synchronized cultured cells, two percent fetal bovine serum (FIG. 64-68). Format: cell-based. An excerpt: (§1) The multiple curves represent various concentrations of topotecan ranging from zero to three hundred nanomolar concentrations.
(§2) The multiple curves represent various concentrations of etoposide ranging from zero to eight hundred nanomolar concentrations.
Referring to FIG. 66, there is illustrated, in graphical format, the anti-proliferative activity of Panzem® in synchronized cultured human coronary artery smooth muscle cells stimulated with two percent fetal bovine serum.
The multiple curves represent various concentrations of Panzem® ranging from zero to 100 micromolar concentrations.

For data set [2], the system named is human coronary artery smooth muscle cell. The data set can be described thus: MTS cytotoxicity assay (FIG. 69). Format: cell-based. The conditions noted are these: concentrations up to 30,000.00 nanomolar (6.6 to 30,000.00 nanomolar tested). An excerpt: Typically, a control is utilized to determine baseline toxicity.
Data set [3] can be described thus: In vivo release kinetics of cladribine from PVDF/HFP coating on Bx Velocity stents (FIG. 61). More on the design: species or system Yorkshire pig. The conditions noted are these: 1800 micrograms basecoat, thirty percent cladribine, 300 micrograms topcoat. The text has this: FIG. 61 is a graphical representation of the in vivo release kinetics of cladribine from a polymeric coating on BxVelocity® stents, available from Cordis Corporation, implanted in a Yorkshire pig. The basecoat comprises an 85/15 ratio of PVDF and HFP and cladribine for a total combined weight of one thousand eight hundred micrograms (cladribine comprising thirty percent of the total weight). The topcoat comprises an 85/15 ratio of PVDF/HFP and no cladribine. The total weight of the topcoat is three hundred micrograms.

The nature of data set [4]: In vivo release kinetics from rapamycin/cladribine EVA/BMA basecoat, porcine pharmacokinetics studies (FIG. 62, 63). The conditions noted are these: comparison of FIG. 63 with FIG. 62. Also noted: species or system Yorkshire pigs. The text has this: The basecoat is applied to Bx Velocity® stents and implanted into Yorkshire pigs.
The basecoat is applied to BxVelocity® stents and implanted into Yorkshire pigs.

The test system of data set [5] is human coronary artery smooth muscle cells. The data set can be described thus: Anti-proliferative activity in non-synchronized cultured cells, two percent fetal bovine serum (FIG. 57, 58). In kind it is cell-based. The text has this:
FIG. 58 illustrates, in graphical format, the anti-proliferative activity of cladribine in non-synchronized cultured human coronary artery smooth muscle cells stimulated with two percent fetal bovine serum.
The multiple curves represent various concentrations of cladribine ranging from zero to nine hundred nanomolar concentrations.

For the next data set, the system named is cell viability. The data set can be described thus: Cell viability assay. Format: cell-based.
Excerpt: as §1, §2

Data set [6] in a line: In vivo release kinetics from rapamycin/mycophenolic acid EVA/BMA basecoat, porcine pharmacokinetics studies (FIG. 53, 54). The conditions noted are these: 180 micrograms rapamycin, 180 micrograms mycophenolic acid, 240 micrograms EVA/BMA; none, 100 or 200 micrograms BMA topcoat.
Data set [7] deals with human coronary artery smooth muscle cells. The data set can be described thus: Anti-proliferative activity of rapamycin with mycophenolic acid, non-synchronized cells, two percent fetal bovine serum (FIG. 52). Format: cell-based. To be noted: mycophenolic acid zero to one thousand nanomolar; leftward and upward shift. The text has this: The multiple curves represent various concentrations of mycophenolic acid ranging from zero to one thousand nanomolar concentrations. […] This potentiation observed in cultured coronary artery smooth muscle cells preferably translates to an enhancement in anti-restenotic efficacy following vascular injury and a reduction in the required amount of either agent to achieve the desired anti-restenotic effect.

A short description of data set [8]: In vivo release kinetics from rapamycin/mycophenolic acid PVDF basecoat with PVDF topcoat, porcine pharmacokinetics studies (FIG. 56). The conditions noted are these: 600 micrograms basecoat, 200 micrograms topcoat. An excerpt: The topcoat is two hundred micro grams.
Data set [9] in a line: Liquid formulations with PEG 200, ethanol and water; concentrations by liquid chromatography. In kind it is physicochemical. To be noted: liquid formulation comprising 4 mg/ml of sirolimus. The text has this: In accordance with exemplary embodiments of the present invention, a series of liquid formulations were developed for the local or regional delivery of water insoluble compounds such as sirolimus and its analogs, including CCl-779, ABT-578 and everolimus, through weeping balloons and catheter injection needles. […] These liquid formulations increase the apparent solubility of the pharmacologically active but water insoluble compounds by two to four orders of magnitude as compared to the solubility limits of the compounds in water. These liquid formulations rely on the use of a very small amount of organic solvents such as Ethanol (typically less than two percent) and a larger amount of safe amphiphilic (of or relating to a molecule having a polar, water soluble group attached to a non-polar, water insoluble […]) excipients such as polyethylene glycol (PEG 200, PEG 400) and vitamin E TPGS to enhance the solubility of the compounds. These liquid formulations of highly water insoluble compounds are stable and readily flowable at room temperature. Certain excipients, such as Vitamin E TPGS and BHT may be utilized to enhance the storage stability of sirolimus compounds through their anti-oxidation properties. […]

Data set [10] has as its system human coronary artery smooth muscle cell. The data set can be described thus: In vitro cell culture study of coronary artery smooth muscle cell proliferation (trichostatin A). Format: cell-based. An excerpt: FIG. 51 is a graph of the inhibition of coronary artery smooth muscle cells by trichostatin A in a cell culture study.
In a further data set the test system is tumor cell lines. To be noted: cited from earlier work.

pIC50: −log10 of the molar value.

Regarding `COc1cc2c(cc1O)CC[C@@H]1[C@@H]2CC[C@]2(C)[C@@H](O)CC[C@@H]12` [Panzem®, 2-methoxyestradiol], the “effect of addition to cells treated with rapamycin” value (shortened to “effect of addition to cells treated”) in data set [1] (Panzem 0.813 to 100 micromolar) is “increases the percent of inhibition of rapamycin alone”. The “anti-proliferative activity (FIG. 66, 67)” value in [1] (in vitro, agent alone) is “extremely effective inhibitor”. The “MTS assay: cell survival” value in data set [2] was “do not reduce human coronary artery smooth muscle cell survival”.

Take `Nc1nc(Cl)nc2c1ncn2[C@H]1C[C@H](O)[C@@H](CO)O1` [cladribine, 2-chlorodeoxyadenosine]: in [3], the “in vivo elution from PVDF/HFP (85/15) coating” value was “levels off significantly”. Besides, the “in vivo elution from EVA/BMA basecoat with BMA topcoat relative to rapamycin” value in data set [4] is reported as “elutes more rapidly than rapamycin”. For the same molecule, the “effect of addition to cells treated” value in data set [5] (cladribine 56.25 to 900 nanomolar) was “increases the percent inhibition of rapamycin alone”. Besides, in data set [5] (non-synchronized cells, two percent fetal bovine serum), the “inhibition of human coronary artery smooth muscle cell proliferation” value is “completely inhibits”.

Turning to `COc1cc([C@@H]2c3cc4c(cc3[C@@H](O[C@@H]3O[C@@H]5CO[C@@H](C)O[C@H]5[C@H](O)[C@H]3O)[C@H]3COC(=O)[C@H]23)OCO4)cc(OC)c1O` [etoposide], in [1] (etoposide 255.7 to eight-hundred nanomolar), the “effect of addition to cells treated” value is given as “increases the percent inhibition of rapamycin alone”. Moreover, in the data set with cell viability (concentrations up to ten micromolar), the “cytotoxicity in a cell viability assay” value is reported as “non-cytotoxic”.

As to `COc1c(C)c2c(c(O)c1C/C=C(\C)CCC(=O)O)C(=O)OC2` [mycophenolic acid], in [6], the “in vivo elution from EVA/BMA basecoat relative to co-loaded drug” value is “elutes more completely over a shorter duration than the rapamycin”. Further, in data set [7], the “effect of addition on the anti-proliferative rapamycin dose response curve” value was “potentiates the anti-proliferative activity of rapamycin”.

For the molecule `CO[C@H]1C[C@@H]2CC[C@@H](C)[C@@](O)(O2)C(=O)C(=O)N2CCCC[C@H]2C(=O)O[C@H]([C@H](C)C[C@@H]2CC[C@@H](O)[C@H](OC)C2)CC(=O)[C@H](C)/C=C(\C)[C@@H](O)[C@@H](OC)C(=O)[C@H](C)C[C@H](C)/C=C/C=C/C=C/1C` [rapamycin], in data set [8], the “in vivo release rate from PVDF basecoat with PVDF topcoat relative to co-loaded drug” value was “slower release rate than that of mycophenolic acid”. The “concentration of sirolimus relative to the solubility of sirolimus in water” value in [9] is listed as “four hundred to about one thousand”.

As to `CC[C@@]1(O)C(=O)OCc2c1cc1n(c2=O)Cc2cc3c(CN(C)C)c(O)ccc3nc2-1` [topotecan], the “effect of addition to cells treated” value in data set [1] (topotecan 18.8 to 300 nanomolar) was “increases the percent inhibition of rapamycin alone”. In addition, the “cytotoxicity in a separate cell viability assay” value in the data set on cell viability (concentrations up to one micromolar) is reported as “non-cytotoxic”.

With `CC(/C=C/C(=O)NO)=C\[C@@H](C)C(=O)c1ccc(N(C)C)cc1` [trichostatin A], in [10], the “inhibition of human coronary artery smooth muscle cell proliferation” value is on record as “completely inhibit”. For the same molecule, in data set [10] (read-out: anti-proliferative IC50), the pIC50 is around 8.22. Besides, in the data set on tumor cell lines, the “anti-proliferative IC50's” value is recorded as “low nM range”.

(Values after patent US7947302B2, “Antithrombotic coating for drug eluting medical devices” (Cordis Corporation, priority 2005, dated 2011).)
